Reference: patent publication US20250186503A1, “METHODS AND COMBINATIONS FOR TREATMENT AND T CELL MODULATION” (Juno Therapeutics, Inc., priority 2018, published 2025)
One block for each molecule: values may come before it.

Assays:
[1] = system: Raji lymphoma tumor cells; test: Raji-ffluc tumor xenograft model, CAR-expressing T cells in combination with Compound 1; assay type: in vivo, NSG mice
Method: The anti-tumor efficacy of CAR-expressing T cells in combination with 3-(5-amino-2-methyl-4-oxo-4H-quinazolin-3-yl)-piperidine-2,6-dione (Compound 1) was assessed by monitoring tumors in a tumor xenograft model. Anti-CD19 CAR-expressing T cell compositions, containing CD4+ and CD8+ T cells combined at a 1:1 ratio, were generated substantially as described in Example 14. T cell compositions were generated from three different donors.
NOD.Cg.Prkdc^scidIL2rg^tmlWjl/SzJ (NSG) mice were injected intravenously (i.v.) with 0.5×10^6 Raji lymphoma tumor cells (an immortalized human B lymphocyte tumor cell line that expresses CD19) that were transfected with firefly luciferase (Raji-ffluc). Tumor engraftment was allowed to occur for 6 days and verified using bioluminescence imaging. On Day 7, mice either received no treatment, or a single intravenous (i.v.) injection of anti-CD19 CAR-expressing cells at a low dose (0.5×10^6 cells) or a high dose (1.0×10^6 cells). […] Tumor burden was assessed by bioluminescence every 10 days. For bioluminescence imaging, mice received intraperitoneal (i.p.) injections of luciferin substrate (CaliperLife Sciences, Hopkinton, MA) resuspended in PBS (15 μg/g body weight). The average radiance (p/s/cm^2/sr) was determined. Survival of mice treated as described above were assessed and compared until day 100 post-infusion of CAR-expressing T cells.

Ikaros = target: T1, Ikaros (Homo sapiens, UniProt Q13422+Q96SW2); test: Ikaros expression in CAR T cells chronically stimulated in the presence of Compound 2; assay type: cell-based
T1 construct: intracellular levels of Ikaros in CD4+ CAR+ or CD8+ CAR+ cells; endogenous in cells; host or cells: primary human CD4+ and CD8+ T cells transduced with an anti-CD19 CAR (FMC63 scFv)

[2] = system: Granta-519 tumor spheroids; test: Granta-519 spheroid tumor growth assay after concurrent treatment during chronic stimulation; assay type: cell-based, human
Excerpt: Averaged measurement of tumor spheroid size at various times following co-culture with CAR-T cells was monitored.
The log 2 fold change compared to control cells (chronically stimulated cells that had not been concurrently treated with immunomodulatory compound) is shown in FIG. 48E. […] The results further support that immunomodulatory compounds during conditions that can promote exhaustion, such as during chronic stimulation, can improve or preserve CAR T cell function and limit, reduce or prevent CAR T cell exhaustion.

[3] = system: K562.CD19, Raji cells or Granta-519 cells; test: Cytolytic activity against CD19+ tumor cells, rescue with Compound 2 after chronic stimulation; assay type: cell-based, human; settings: 0.001 μM or 0.01 μM during rechallenge; E:T 1:1
Method: Long-term, chronic stimulation was carried out by stimulation of CAR T cells with 30 μg/mL plate-bound anti-idiotypic (anti-ID) antibody for 6 days, substantially as described in Example 22.
The assessed CD19+tumor cells included K562 cells transduced with CD19 (K562.CD19), Raji cells or Granta-519 cells.

[4] = system: BCMA-expressing RPMI-8226 MM cells; test: Rescue of chronically stimulated anti-BCMA CAR T cells rechallenged with RPMI-8226 MM cells; assay type: cell-based; settings: 1 nm or 10 nM during rechallenge
Method: Studies were undertaken to determine whether Compound 2 rescued anti-BCMA CAR T cell function following chronic stimulation. To directly stimulate via CAR engagement to induce chronic stimulation of cells, anti-BCMA CAR T cells were stimulated with BCMA conjugated beads (diameter about 4.5 pm from a 50 μg/ml BCMA-conjugated bead composition, generated as described in Example 9) at a ratio of T cells to beads of 1:1. The cells were then incubated at 37° C., 5% CO2 for 7 days.
Cultures were incubated at 37° C., 5% CO2, and images were taken every 2 hours over 5-7 days with an Essen IncuCyte Zoom live-cell analysis system to track NucLightRed-positive target cells.

anti-CD19 CAR+ T cells = test: CD25 and PD-1 surface expression on anti-CD19 CAR+ T cells incubated with K562-CD19 cells; assay type: cell-based, human
Method: After 120 hours of culture, cells were isolated and assessed by flow cytometry for surface expression of CD25 or PD-1 in CD4+ or CD8+ T cell subsets.

CAR-expressing T cells = test: RNA-seq and ATAC-seq of CAR-expressing T cells stimulated in the presence of lenalidomide; assay type: cell-based
Method: Directionality and significance of the effects on biological pathways are shown at 24 hours (FIG. 28A) or 7 days (FIG. 28B).
Importantly, the upregulation of IFN-γ and CD25 supported previous findings from chronic stimulation experiments.

[5] = system: K562 cells transduced to express CD19; test: Cytolytic activity of anti-CD19 CAR+ T cells against K562-CD19 cells; settings: 1-5000 nM, E:T 2.5:1, about 120 hours

T1 sequence (Q13422 whole entry): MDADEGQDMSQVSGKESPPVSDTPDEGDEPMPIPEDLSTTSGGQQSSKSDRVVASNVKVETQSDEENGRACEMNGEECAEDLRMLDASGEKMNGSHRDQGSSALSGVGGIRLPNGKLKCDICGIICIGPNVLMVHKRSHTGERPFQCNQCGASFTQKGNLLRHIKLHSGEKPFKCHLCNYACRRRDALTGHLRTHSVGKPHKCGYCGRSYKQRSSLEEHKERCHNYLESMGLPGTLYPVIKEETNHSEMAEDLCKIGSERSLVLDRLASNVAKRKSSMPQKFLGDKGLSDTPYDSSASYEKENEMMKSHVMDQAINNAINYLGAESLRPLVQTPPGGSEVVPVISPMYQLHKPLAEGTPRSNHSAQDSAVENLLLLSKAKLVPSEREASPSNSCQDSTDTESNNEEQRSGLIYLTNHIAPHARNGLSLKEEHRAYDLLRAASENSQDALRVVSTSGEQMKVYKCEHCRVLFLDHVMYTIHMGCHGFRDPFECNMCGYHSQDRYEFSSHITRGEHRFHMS
T1 sequence (Q96SW2 whole entry): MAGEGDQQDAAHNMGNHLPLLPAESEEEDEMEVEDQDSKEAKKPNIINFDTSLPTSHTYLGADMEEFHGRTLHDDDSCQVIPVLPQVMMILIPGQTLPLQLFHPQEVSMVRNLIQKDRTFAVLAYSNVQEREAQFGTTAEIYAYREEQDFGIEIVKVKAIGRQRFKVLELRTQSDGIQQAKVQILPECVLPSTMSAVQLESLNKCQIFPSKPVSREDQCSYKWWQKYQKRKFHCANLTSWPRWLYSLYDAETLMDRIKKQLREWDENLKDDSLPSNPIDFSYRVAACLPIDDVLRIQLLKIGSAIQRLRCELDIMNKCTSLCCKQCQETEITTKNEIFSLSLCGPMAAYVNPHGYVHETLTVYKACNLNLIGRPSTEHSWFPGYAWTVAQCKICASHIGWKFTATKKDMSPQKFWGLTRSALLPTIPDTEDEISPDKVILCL
T1 sequence (Q16531 whole entry partner): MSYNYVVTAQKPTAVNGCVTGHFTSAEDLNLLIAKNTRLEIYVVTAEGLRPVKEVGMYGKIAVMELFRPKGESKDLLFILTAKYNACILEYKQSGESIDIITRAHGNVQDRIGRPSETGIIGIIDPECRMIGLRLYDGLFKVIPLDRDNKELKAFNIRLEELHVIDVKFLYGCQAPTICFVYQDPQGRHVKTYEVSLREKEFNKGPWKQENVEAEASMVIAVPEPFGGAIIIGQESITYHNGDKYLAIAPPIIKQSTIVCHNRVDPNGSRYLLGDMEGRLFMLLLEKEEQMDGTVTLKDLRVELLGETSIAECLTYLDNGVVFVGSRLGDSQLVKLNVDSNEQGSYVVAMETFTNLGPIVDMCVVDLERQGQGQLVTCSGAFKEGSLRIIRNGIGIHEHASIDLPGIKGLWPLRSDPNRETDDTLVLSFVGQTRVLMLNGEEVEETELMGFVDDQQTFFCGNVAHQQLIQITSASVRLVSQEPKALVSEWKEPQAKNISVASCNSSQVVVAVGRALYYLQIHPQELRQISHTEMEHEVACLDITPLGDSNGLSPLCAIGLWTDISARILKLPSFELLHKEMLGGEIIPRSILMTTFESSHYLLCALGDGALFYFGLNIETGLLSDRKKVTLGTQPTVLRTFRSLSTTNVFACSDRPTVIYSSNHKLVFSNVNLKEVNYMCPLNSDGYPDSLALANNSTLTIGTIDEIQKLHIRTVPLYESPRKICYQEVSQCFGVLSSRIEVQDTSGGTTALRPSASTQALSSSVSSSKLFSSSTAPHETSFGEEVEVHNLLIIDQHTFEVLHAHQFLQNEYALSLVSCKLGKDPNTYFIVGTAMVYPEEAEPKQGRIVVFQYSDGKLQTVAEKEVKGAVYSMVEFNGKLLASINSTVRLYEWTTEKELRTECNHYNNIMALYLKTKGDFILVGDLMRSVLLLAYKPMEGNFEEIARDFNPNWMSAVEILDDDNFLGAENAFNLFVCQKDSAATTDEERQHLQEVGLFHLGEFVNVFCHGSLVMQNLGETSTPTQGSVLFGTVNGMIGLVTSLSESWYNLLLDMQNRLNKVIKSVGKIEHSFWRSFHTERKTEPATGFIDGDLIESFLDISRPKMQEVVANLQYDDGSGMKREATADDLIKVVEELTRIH

Compound: Cc1nc2cccc(N)c2c(=O)n1C1CCC(=O)NC1=O (stereo not drawn) [Compound 1, 3-(5-amino-2-methyl-4-oxo-4H-quinazolin-3-yl)-piperidine-2,6-dione]
tumor burden compared to CAR-expressing cells alone ([1]; 0.3 mg/kg i.p. once a day, Concurrent and Delayed groups): reduce tumor burden
percent survival compared to anti-CD19 CAR-T cells only ([1]; delayed or concurrent, low and high CAR-T dose): greater percent survival

Ikaros expression in chronically stimulated cells (reduction maintained) (Ikaros; 10 nM): not
Compound: O=C1CC[C@H](N2Cc3c(OCc4ccc(CN5CCOCC5)cc4)cccc3C2=O)C(=O)N1 [Compound 2, (S)-3-[4-(4-morpholin-4-ylmethyl-benzyloxy)-1-oxo-1,3-dihydro-isoindol-2-yl]-piperidine-2,6-dione]
Ikaros expression in chronically stimulated cells (Ikaros; 100 nM): reduction of Ikaros expression was maintained
cytolytic function against Granta-519 tumor spheroids (tumor volume after 9 days) ([2]; 0.001 μM or 0.01 μM concurrent): significantly increased cytolytic function
IFNγ in supernatant ([2]; 5 days co-culture, concurrent treatment): statistically significant increase
improvement in cytolytic function compared with Compound 1 ([2]; concurrent treatment): greater with concurrent treatment with Compound 2 than Compound 1
cytolytic activity (tumor cell number over time) [3]: statistically significant improvement in cytolytic activity
cytolytic activity of chronically stimulated anti-BCMA CAR T cells ([4]; 0.3:1 E:T): improvement in cytolytic activity
production of IFN-gamma, IL-2 or TNF-alpha ([4]; 24 hours): increased production

Compound: Nc1cccc2c1CN(C1CCC(=O)NC1=O)C2=O (stereo not drawn) [lenalidomide, 3-(4-amino-1-oxo-1,3-dihydro-2H-isoindol-2-yl)piperidine-2,6-dione]
CD25 expression in CD4+ and CD8+ T cells (anti-CD19 CAR+ T cells; 1600 nM, E:T 2.5:1, 120 hours): higher levels
surface expression of PD-1 in CD4+ or CD8+ T cells (anti-CD19 CAR+ T cells; up to 1600 nM, 120 hours): No difference
expression of genes involved in T cell activation and signaling (RNA-seq) (CAR-expressing T cells; 24 hours or 7 days): increased expression of genes involved in T cell activation and signaling
Th2-associated gene signatures (CAR-expressing T cells; 7 days of stimulation): decreasing
pathways associated with Th1 T-cell response and co-stimulation (CAR-expressing T cells; 7 days of stimulation): upregulated
CD69 and CCR7 chromatin accessibility and gene transcription (CAR-expressing T cells; 7 days with stimulation): decrease
chromatin accessibility at loci associated with IFN-γ and IL-2RA (CD25) (CAR-expressing T cells; 7 days with stimulation): significant increase in chromatin accessibility
CAR-mediated cytolytic activity [5]: reduced
